How the values were obtained:
Experiment in all cases: cell viability (% survival relative to DMSO control, bortezomib = 0%); higher = less cytotoxic
Details in all cases: 72 h
[1] = system: SHI-1
Outline: (§1)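 Fifteen myeloid leukaemia cell lines (10 AML, 5 CML) were seeded at a density titrated to the linear growth range. They went into 384-well plates with compounds pre-printed at 1, 10, 100, 1000 or 10000 nM in duplicate. After 72 h at 37 °C with 5% CO2, viability was read by CellTiter-Glo luminescence. Values are percent survival, with vehicle set to 100% and a 10 µM positive control to 0%, averaged over the duplicates.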

[2] = system: LAMA-84
Outline: as §1

[3] = system: MOLM-13
Outline: as §1

[4] = system: Mono-Mac-6
Outline: as §1

SMILES | cell viability ([1]; 1 nM) [%] | cell viability ([1]; 10 nM) [%] | cell viability ([1]; 100 nM) [%] | cell viability ([1]; 1000 nM) [%] | cell viability ([1]; 10000 nM) [%] | cell viability ([2]; 1 nM) [%] | cell viability ([2]; 10 nM) [%] | cell viability ([2]; 100 nM) [%] | cell viability ([2]; 1000 nM) [%] | cell viability ([2]; 10000 nM) [%] | cell viability ([3]; 1 nM) [%] | cell viability ([3]; 10 nM) [%] | cell viability ([3]; 100 nM) [%] | cell viability ([3]; 1000 nM) [%] | cell viability ([3]; 10000 nM) [%] | cell viability ([4]; 1 nM) [%] | cell viability ([4]; 10 nM) [%] | cell viability ([4]; 100 nM) [%] | cell viability ([4]; 1000 nM) [%] | cell viability ([4]; 10000 nM) [%]
CC(/C=C1\SC(=S)N(CC(=O)O)C1=O)=C\c1ccccc1 [Epalrestat] | 120 | 100 | 106 | 93.5 | 113 | 104 | 99.8 | 82.6 | 104 | 99.8 | 120 | 106 | 106 | 99.1 | 110 | 106 | 103 | 103 | 93.9 | 116
CCOC(=O)[C@@]1(CCCCCCOc2ccc(Cl)cc2)CO1 [Etomoxir] | 107 | 108 | 110 | 105 | 104 | 94.9 | 110 | 106 | 58.5 | 62.7 | 134 | 99.7 | 93.1 | 92 | 93 | 93.5 | 94.4 | 92.9 | 95.7 | 96.3
Cc1c(-c2ccccc2)oc2c(C(=O)OCCN3CCCCC3)cccc2c1=O.Cl [Flavoxate] | 94.8 | 99.6 | 97.6 | 98.4 | 101 | 98 | 102 | 97.6 | 101 | 101 | 92.9 | 107 | 95.4 | 92.6 | 81.6 | 92.6 | 105 | 101 | 96 | 94.6
O=C(O)CCc1ccc(NCc2cccc(Oc3ccccc3)c2)cc1 [GW9508] | 102 | 99.4 | 120 | 97.8 | 107 | 96.8 | 98.6 | 108 | 93.2 | 106 | 98.9 | 91.7 | 92.1 | 89.6 | 104 | 101 | 104 | 108 | 110 | 104
c1ccc2c(c1)OCC(=C1NCCN1)O2 [Idazoxan] | 105 | 103 | 89.8 | 101 | 95.1 | 101 | 98.4 | 89 | 96.5 | 93 | 97.2 | 109 | 95.1 | 89.5 | 102 | 102 | 106 | 91.1 | 89.1 | 102
C[C@]12O[C@H](C[C@]1(O)CO)n1c3ccccc3c3c4c(c5c6ccccc6n2c5c31)CNC4=O [Lestaurtinib] | 107 | 97.9 | 37.1 | 19.5 | 0.00197 | 99.6 | 94.4 | 34.2 | 25 | 0.148 | 78.5 | 14.4 | -0.694 | 1.23 | -0.369 | 83.4 | 54.1 | 4.06 | 0.62 | 0.201

— the supplement of paper PMC8671470
